Measured values from ChEMBL document CHEMBL1125547, “Synthesis and excitatory amino acid pharmacology of a series of heterocyclic-fused quinoxalinones and quinazolinones” (J Med Chem, 1992).

Columns and labels:
[1] = biological target: T1, Glutamate receptor ionotropic, AMPA (Rattus norvegicus, UniProt P19490+P19491+P19492+P19493); test: Displacement of [3H]AMPA from Ionotropic glutamate receptor AMPA.; assay type: protein-complex assay
[2] = biological target: Glutamate receptor ionotropic, NMDA 1 (Rattus norvegicus, UniProt P35439); test: Displacement of [3H]glycine from glycine site on the NMDA receptor.
Glutamate NMDA receptor = test: Compound was tested for its ability to displace [3H]glycine from glycine site on the N-methyl-D-aspartate glutamate receptor; assay type: protein-complex assay
[3] = biological target: T1, Glutamate receptor ionotropic, AMPA; test: Compound was tested for its ability to displace [3H]-AMPA from AMPA receptor; assay type: protein-complex assay

SMILES	Ki [1] [µM]	Ki [2] [µM]	Ki (Glutamate NMDA receptor) [µM]	Ki [3] [µM]
CCc1nnc2c(O)nc3cc(Cl)c(Cl)cc3n12	4.78	4.58	–	–
O=[N+]([O-])c1ccc2c(c1)nc(O)c1nnnn12	> 10	> 10	–	–
Oc1nc2cc(Cl)c(Cl)cc2n2nnnc12	> 10	> 10	–	–
CCCCc1nnc2c(=O)[nH]c3cc(Cl)c(Cl)cc3n12	1.71	1.48	–	–
Oc1nc2cc(Cl)c(Cl)cc2n2cnnc12	4.69	0.63	–	–
O=c1[nH]c2cc(F)c(F)cc2n2cnnc12	> 10	> 10	–	–
Oc1nc2cc(Cl)c(Cl)cc2c2ccnn12	> 10	> 10	–	–
CCCc1nnc2c(O)nc3cc(Cl)c(Cl)cc3n12	–	3.92	–	–
O=c1[nH]c2ccc([N+](=O)[O-])cc2n2nnnc12	> 10	> 10	–	–
O=c1[nH]c2cc(Cl)ccc2c2ccnn12	> 10	> 10	–	–
O=[N+]([O-])c1cc2nc(O)c3nncn3c2cc1[N+](=O)[O-]	–	–	5.12	5.49
O=[N+]([O-])c1ccc2c(c1)nc(O)c1nncn12	0.99	7.35	–	–
Cc1nnc2c(=O)[nH]c3cc(Cl)c(Cl)cc3n12	4.45	> 10	–	–
Oc1nc2cc(Cl)c(Cl)cc2n2c(-c3ccccc3)nnc12	> 10	> 10	–	–
Oc1nc2cc(Cl)cc(Cl)c2n2cnnc12	3.24	2.85	–	–
Oc1nc2cc(Cl)c(Cl)cc2n2ccnc12	7.38	1.26	–	–
Oc1nc2cc(Cl)c(Cl)cc2n2c(C(F)(F)F)nnc12	> 10	> 10	–	–
O=[N+]([O-])c1cc2nc(O)c3nnnn3c2cc1[N+](=O)[O-]	–	–	> 10	> 10
Oc1nc2cc(Cl)c(Cl)cc2nc1O [2,3-DIHYDROXY-6,7-DICHLOROQUINOXALINE]	1.64	0.21	–	–
O=c1[nH]c2cc([N+](=O)[O-])c([N+](=O)[O-])cc2[nH]c1=O [DNQX]	–	–	0.39	–
